In test [1] the test system is Erysiphe graminis f. sp. tritici. The test is described as follows: Test A: wheat powdery mildew, preventive spray on wheat seedlings, disease rating. It is filed as in vivo, Erysiphe graminis f. sp. tritici (on wheat seedlings). The note with it: 200 ppm test suspension sprayed to run-off (equivalent to 500 g/ha) on wheat seedlings; 100 = 100% disease control, 0 = no control; # = significant activity. The source says:
(§1) Test compounds were first dissolved in acetone in an amount equal to 3% of the final volume and then suspended at a concentration of 200 ppm in purified water containing 250 ppm of the surfactant Trem® 014 (polyhydric alcohol esters). The resulting test suspensions were then used in the following test. Spraying these 200 ppm test suspensions to the point of run-off on the test plants is the equivalent of a rate of 500 g/ha.
The test suspension was sprayed to the point of run-off on wheat seedlings. The following day the seedlings were inoculated with a spore dust of Erysiphe graminis f. sp. tritici, (the causal agent of wheat powdery mildew) and incubated in a growth chamber at 20° C. for 7 days, after which disease ratings were made.
(§2) Results for Tests A-E are given in Table A. In the table, a rating of 100 indicates 100% disease control and a rating of 0 indicates no disease control (relative to the controls). A dash (-) indicates no test results. ND indicates disease control not determined due to phytotoxicity. # indicates significant activity.

Test [2] relates to Puccinia recondita. Nature of the test: Test B: wheat leaf rust, preventive spray on wheat seedlings, disease rating. It is filed as in vivo, Puccinia recondita (on wheat seedlings). As to conditions: 200 ppm test suspension sprayed to run-off (equivalent to 500 g/ha) on wheat seedlings; 100 = 100% disease control, 0 = no control; # = significant activity.
Description: as §1
The test suspension was sprayed to the point of run-off on wheat seedlings. The following day the seedlings were inoculated with a spore suspension of Puccinia recondita (the causal agent of wheat leaf rust) and incubated in a saturated atmosphere at 20° C. for 24 h, and then moved to a growth chamber at 20° C. for 6 days, after which disease ratings were made.
as §2

Test [3] deals with Pyricularia oryzae. It is filed as in vivo, Pyricularia oryzae (on rice seedlings). The note with it: 200 ppm test suspension sprayed to run-off (equivalent to 500 g/ha) on rice seedlings; 100 = 100% disease control, 0 = no control; # = significant activity.
Test [4] deals with Phytophthora infestans. It is filed as in vivo, Phytophthora infestans (on tomato seedlings). As to conditions: 200 ppm test suspension sprayed to run-off (equivalent to 500 g/ha) on tomato seedlings; 100 = 100% disease control, 0 = no control; # = significant activity.
Test [5] has as its system Botrytis cinerea. Nature of the test: Test E: gray mold, preventive spray on cucumber seedlings, disease rating. It is filed as in vivo, Botrytis cinerea (on cucumber seedlings). The note with it: 200 ppm test suspension sprayed to run-off (equivalent to 500 g/ha) on cucumber seedlings; 100 = 100% disease control, 0 = no control; # = significant activity.
Description: as §1
The test suspension was sprayed to the point of run-off on cucumber seedlings. The following day the seedlings were inoculated with a spore suspension of Botrytis cinerea (the causal agent of gray mold on many crops) and incubated in a saturated atmosphere at 20° C. for 48 h, and moved to a growth chamber at 20° C. for 5 days, after which disease ratings were made.
as §2

The source of these data is patent US6504058B1 (priority 1997, dated 2003).

For the molecule `CC(COc1cc(F)ccc1F)NC(=O)C1(C(F)(F)F)CC(C)(Cl)C1` (stereo not shown) [compound 28], the “Test A disease control rating (wheat powdery mildew)” value (from here on “Test A disease control rating”) in test [1] was 53%. Further, the “Test B disease control rating (wheat leaf rust)” value (“Test B disease control rating” below) in test [2] is given as 0 (a rating of 0 indicates no disease control (relative to the controls)). In test [3], the “Test C disease control rating (rice blast)” value (“Test C disease control rating” below) is given as 100# (a rating of 100 indicates 100% disease control). In test [4], the “Test D disease control rating (potato and tomato late blight)” value (“Test D disease control rating” for short) is 0 (a rating of 0 indicates no disease control (relative to the controls)). The “Test E disease control rating (gray mold)” value in test [5] is recorded as 0 (a rating of 0 indicates no disease control (relative to the controls)).
In the case of `CC(COc1cc(F)ccc1F)NC(=O)C1(C)CC(C)(Cl)C1` (stereo not shown) [compound 29], in test [1], the “Test A disease control rating” value is recorded as 0 (a rating of 0 indicates no disease control (relative to the controls)). Besides, the “Test B disease control rating” value in test [2] is 86# %. For the same molecule, the “Test C disease control rating” value in test [3] is 100# (a rating of 100 indicates 100% disease control). Further, the “Test D disease control rating” value in test [4] is given as 0 (a rating of 0 indicates no disease control (relative to the controls)). For the same molecule, the “Test E disease control rating (gray mold)” value in test [5] is reported as 0 (a rating of 0 indicates no disease control (relative to the controls)).
With `CC(NC(=O)C1CC(C)(Cl)C1)C(Oc1cc(F)ccc1F)c1ccccc1` (stereo not shown) [compound 31], the “Test A disease control rating” value in test [1] is given as 0 (a rating of 0 indicates no disease control (relative to the controls)). Moreover, the “Test B disease control rating” value in test [2] was 0 (a rating of 0 indicates no disease control (relative to the controls)). Moreover, the “Test C disease control rating” value in test [3] is 90# %. The “Test D disease control rating” value in test [4] was 0 (a rating of 0 indicates no disease control (relative to the controls)). Besides, the “Test E disease control rating (gray mold)” value in test [5] is reported as 0 (a rating of 0 indicates no disease control (relative to the controls)).
For `CC(NC(=O)C1CC(C)(Cl)C1)C(Oc1cc(F)ccc1F)c1ccccc1` (stereo not shown) [compound 32], the “Test A disease control rating” value in test [1] worked out at 59%. Further, in test [2], the “Test B disease control rating” value is 0 (a rating of 0 indicates no disease control (relative to the controls)). The “Test C disease control rating” value in test [3] was determined as 52%. The “Test D disease control rating” value in test [4] was 0 (a rating of 0 indicates no disease control (relative to the controls)). Further, in test [5], the “Test E disease control rating (gray mold)” value is given as 0 (a rating of 0 indicates no disease control (relative to the controls)).
For the molecule `CC(NC(=O)C1CC(C)(Cl)C1)C(Oc1cc(F)ccc1C#N)c1ccccc1` (stereo not shown) [compound 33], the “Test A disease control rating” value in test [1] is 0 (a rating of 0 indicates no disease control (relative to the controls)). The “Test B disease control rating” value in test [2] is on record as 0 (a rating of 0 indicates no disease control (relative to the controls)). Besides, the “Test C disease control rating” value in test [3] was found to be 52%. Also, in test [4], the “Test D disease control rating” value was 0 (a rating of 0 indicates no disease control (relative to the controls)). Further, the “Test E disease control rating (gray mold)” value in test [5] was 0 (a rating of 0 indicates no disease control (relative to the controls)).
With `CC(NC(=O)C1CC(C)(Cl)C1)C(Oc1cc(F)ccc1C#N)c1ccccc1` (stereo not shown) [compound 34], the “Test A disease control rating” value in test [1] amounted to 59%. Further, the “Test B disease control rating” value in test [2] was 0 (a rating of 0 indicates no disease control (relative to the controls)). The “Test C disease control rating” value in test [3] was found to be 52%. In addition, in test [4], the “Test D disease control rating” value is on record as 45%. In test [5], the “Test E disease control rating (gray mold)” value is recorded as 0 (a rating of 0 indicates no disease control (relative to the controls)).
Turning to `CC(NC(=O)C1CC(C)(Cl)C1)C(Oc1ccccc1C#N)c1ccccc1` (stereo not shown) [compound 35], the “Test A disease control rating” value in test [1] was 0 (a rating of 0 indicates no disease control (relative to the controls)). For the same molecule, the “Test B disease control rating” value in test [2] was 0 (a rating of 0 indicates no disease control (relative to the controls)). Besides, in test [3], the “Test C disease control rating” value is 86# %. Further, in test [4], the “Test D disease control rating” value is recorded as 0 (a rating of 0 indicates no disease control (relative to the controls)). In test [5], the “Test E disease control rating (gray mold)” value is recorded as 0 (a rating of 0 indicates no disease control (relative to the controls)).
As for `CC(NC(=O)C1CC(C)(Cl)C1)C(Oc1ccccc1C#N)c1ccccc1` (stereo not shown) [compound 36], the “Test A disease control rating” value in test [1] was 0 (a rating of 0 indicates no disease control (relative to the controls)). In test [2], the “Test B disease control rating” value is given as 0 (a rating of 0 indicates no disease control (relative to the controls)). The “Test C disease control rating” value in test [3] is 0 (a rating of 0 indicates no disease control (relative to the controls)). Further, the “Test D disease control rating” value in test [4] was 0 (a rating of 0 indicates no disease control (relative to the controls)). The “Test E disease control rating (gray mold)” value in test [5] is recorded as 0 (a rating of 0 indicates no disease control (relative to the controls)).
For `CC(COc1ccc(Br)cc1C#N)NC(=O)C1(C)CC(C)(Cl)C1` (stereo not shown) [compound 37], the “Test A disease control rating” value in test [1] is 0 (a rating of 0 indicates no disease control (relative to the controls)). Further, in test [2], the “Test B disease control rating” value came out at 25%. The “Test C disease control rating” value in test [3] is given as 0 (a rating of 0 indicates no disease control (relative to the controls)). Besides, in test [4], the “Test D disease control rating” value came to 23%. Further, the “Test E disease control rating (gray mold)” value in test [5] was 8%.
On to `CC(COc1ccc(Br)cc1C#N)NC(=O)C1(C)CC(C)(Cl)C1` (stereo not shown) [compound 38], for which the “Test A disease control rating” value in test [1] was 0 (a rating of 0 indicates no disease control (relative to the controls)). The “Test B disease control rating” value in test [2] is reported as 66# %. Besides, the “Test C disease control rating” value in test [3] is on record as 0 (a rating of 0 indicates no disease control (relative to the controls)). The “Test D disease control rating” value in test [4] is reported as 23%. In addition, in test [5], the “Test E disease control rating (gray mold)” value was 8%.
`CC(COc1ccc(F)cc1C#N)NC(=O)C1(C)CC(C)(Cl)C1` (stereo not shown) [compound 39]: the “Test A disease control rating” value in test [1] was 0 (a rating of 0 indicates no disease control (relative to the controls)). In addition, the “Test B disease control rating” value in test [2] is given as 25%. Also, in test [3], the “Test C disease control rating” value is 97# %. Further, the “Test D disease control rating” value in test [4] was 45%. Further, the “Test E disease control rating (gray mold)” value in test [5] turned out to be 47%.
`CC(COc1ccc(F)cc1C#N)NC(=O)C1(C)CC(C)(Cl)C1` (stereo not shown) [compound 40]: the “Test A disease control rating” value in test [1] is given as 0 (a rating of 0 indicates no disease control (relative to the controls)). In test [2], the “Test B disease control rating” value was 0 (a rating of 0 indicates no disease control (relative to the controls)). In addition, the “Test C disease control rating” value in test [3] is 0 (a rating of 0 indicates no disease control (relative to the controls)). For the same molecule, the “Test D disease control rating” value in test [4] turned out to be 62%. Further, the “Test E disease control rating (gray mold)” value in test [5] is given as 0 (a rating of 0 indicates no disease control (relative to the controls)).
For `CC(COc1ccc(Cl)cc1C#N)NC(=O)C1(C)CC(C)(Cl)C1` (stereo not shown) [compound 41], the “Test A disease control rating” value in test [1] is given as 0 (a rating of 0 indicates no disease control (relative to the controls)). Besides, the “Test B disease control rating” value in test [2] was 0 (a rating of 0 indicates no disease control (relative to the controls)). Further, the “Test C disease control rating” value in test [3] is given as 0 (a rating of 0 indicates no disease control (relative to the controls)). Besides, the “Test D disease control rating” value in test [4] is reported as 85# %. The “Test E disease control rating (gray mold)” value in test [5] was 19%.
As to `CC(COc1ccc(Cl)cc1C#N)NC(=O)C1(C)CC(C)(Cl)C1` (stereo not shown) [compound 42], the “Test A disease control rating” value in test [1] worked out at 63%. Besides, the “Test B disease control rating” value in test [2] is on record as 0 (a rating of 0 indicates no disease control (relative to the controls)). In addition, in test [3], the “Test C disease control rating” value is on record as 0 (a rating of 0 indicates no disease control (relative to the controls)). For the same molecule, in test [4], the “Test D disease control rating” value came out at 43%. Also, the “Test E disease control rating (gray mold)” value in test [5] was 19%.
